Entries after “also recorded” stand apart in the source; their conditions may differ.
Key:
[1] = tested on: luciferase (Luc) mRNA; assay: Luc expression (total flux) after intramuscular administration; assay type: in vivo, mice; settings: for Total flux, 0.001 mpk Dose / Total flux, 0.01 mpk Dose: 6 hours after intramuscular administration, Luc mRNA and H10 mRNA; for Novel lipid/MC3 expression ratio, 6 hr. time point, i.m. Luc / Fold increase in Luc expression relative to MC3, Intramuscular (0.001 mpk dose) / Fold increase in Luc expression relative to MC3, Intramuscular (0.01 mpk dose): intramuscular; for Novel lipid/MC3 expression ratio, 6 hr. time point, i.m. Luc: relative to MC3 formulation
Summary of the method: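 Mice given a single intramuscular dose of lipid nanoparticle formulations carrying modified Luc mRNA, alone or with H10 mRNA, at 0.001 or 0.01 mpk total. Luciferase expression recorded as total flux.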

[2] = tested on: luciferase (Luc) mRNA; assay: Luc expression, whole body bioluminescence after intravenous administration to mice; assay type: in vivo; settings: for Total Flux 3 hours / Total Flux 6 hours / Total Flux 24 hours / luciferase activity relative to MC3 LNP control / total flux at 3 hours: mice; for Total Flux 3 hours / Total Flux 6 hours / Total Flux 24 hours / total flux at 3 hours: i.v.; for Total Flux 3 hours / Total Flux 6 hours / Total Flux 24 hours: Luc mRNA; for Fold increase in total body Luc Flux relative to MC3 at 6 h: Table 3A; for Novel lipid/MC3 ratio, 6 hr. timepoint, i.v. / Novel lipid/MC3 expression ratio, 6 hr. time point, i.v.: luciferase; for Novel lipid/MC3 ratio, 6 hr. timepoint, i.v. / Novel lipid/MC3 expression ratio, 6 hr. time point, i.v. / luciferase activity relative to MC3 LNP control / Fold increase in Luc expression relative to MC3, Intravenous (0.5 mpk dose): intravenous; for Novel lipid/MC3 ratio, 6 hr. timepoint, i.v.: relative to MC3, Table 3G; for Novel lipid/MC3 expression ratio, 6 hr. time point, i.v.: relative to MC3 formulation; for Lipid/MC3 Luc expression: 0.5 mpk dose to mouse, 6 hours after administration; for luciferase activity relative to MC3 LNP control: 0.5 mg/kg (mRNA dose); for total flux at 3 hours: comparison in words
Summary of the method: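 Luc mRNA nanoparticle formulations given intravenously to mice (n=6) at 0.5 mg/kg; whole-body bioluminescence imaged at 3, 6 and 24 h. CD-1 mice received IP D-luciferin (200 μL of 15 mg/mL) 15 min before imaging; total flux quantified by region of interest.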

[3] = Apparent (surface) pKa of the LNP formulation (TNS assay); assay type: physicochemical
Summary of the method: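 LNP (0.04 mg/mL mRNA) mixed with TNS reagent in 21 buffers spanning about pH 3-12, in triplicate; fluorescence plotted against pH as sigmoidal curve. Apparent pKa taken as […] curve inflection point; validated in 1× PBS and 20 mM Tris w/8% sucrose.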

[4] = Encapsulation efficiency of RNA (QUANT-IT RIBOGREEN RNA assay); assay type: physicochemical; settings: for % Encapsulation: lipid nanoparticle, ±SD within one assay run (Table 37); for EE: nanoparticle composition with hEPO mRNA (Table 30)
Summary of the method: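 RiboGreen fluorescence (ex ~480, em ~520 nm) compared between intact samples and Triton X-100-lysed samples after 15 min at 37 °C in TE buffer, pH 7.5. Percent free RNA is the blank-corrected intact/disrupted ratio.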

[5] = Table 1C, compositions for subcutaneous administration
[6] = lipid nanoparticle, ±SD within one assay run (Table 37)
[7] = Table 1B, formulated with hEPO mRNA
[8] = Table 1D, for subcutaneous administration, # formulated with hEPO mRNA

SMILES | Total flux, 0.001 mpk Dose [1] [p/s] | Total flux, 0.01 mpk Dose [1] [p/s] | Total Flux 3 hours ([2]; 0.5 mg/kg) | Total Flux 6 hours ([2]; 0.5 mg/kg) | Total Flux 24 hours ([2]; 0.5 mg/kg) | pKa ([3]; Table 1A) | EE (%) ([4]; Table 1A) | Fold increase in total body Luc Flux relative to MC3 at 6 h ([2]; i.v. administration) | Novel lipid/MC3 ratio, 6 hr. timepoint, i.v. [2] | Novel lipid/MC3 expression ratio, 6 hr. time point, i.v. [2] | % EE [4, 5] [%] | Lipid/MC3 Luc expression [2] | pKa [3, 6] | % EE [4, 8] [%] | % Encapsulation [4] [%] | EE [4] [%] | also measured
CCCCCCCCCOC(=O)CCCCCCCN(CCO)CCCCCCCCCC(=O)OC(CCCCCCCC)CCCCCCCC [Compound 23, Heptadecan-9-yl 10-((2-hydroxyethyl)(8-(nonyloxy)-8-oxooctyl)amino) decanoate] | 8.27E+06 | 2.20E+06 | 1.83E+09 | 1.15E+09 | 3.71E+08 | 6.84 | 92.68 | – | – | – | – | – | – | – | – | – | App. pKa ([3]; Table 3F): 6.88; % EE ([4]; Table 1E, compositions for subcutaneous administration): 98%
CCCCCC/C=C\COC(=O)CCCCCCCN(CCO)CCCCCCCC(=O)OC(CCCCCCCC)CCCCCCCC [Compound 24, Heptadecan-9-yl (Z)-8_((2-hydroxyethyl) (8-(non-2-en-1-yloxy)-8-oxooctyl)amino)octanoate] | 3.78E+06 | 3.97E+07 | 1.72E+10 | 2.25E+10 | 1.83E+09 | 6.71 | 97.16 | 2.67 | 2.67 | 2.67 | 90.5 | – | – | – | – | – | –
CCCCCCCCCCCOC(=O)CCCCCN(CCO)CCCCCCCC(=O)OC(CCCCCCCC)CCCCCCCC [Compound 25, Heptadecan-9-yl 8-((2-hydroxyethyl)(6-oxo-6-(undecyloxy)hexyl)amino)octanoate] | 3.53E+06 | 9.96E+07 | 2.27E+10 | 1.59E+10 | 9.77E+08 | 6.68 | 95.80 | 1.89 | 1.89 | 1.89 | 98.1 | 1.89 | 6.68 ± 0.29 | 97.8 | 95.8 ± 1.0 | 87.01 | Novel lipid/MC3 expression ratio, 6 hr. time point, i.m. Luc [1]: 1.46; luciferase activity relative to MC3 LNP control [2]: higher expression compared to MC3; EE (%) [4, 7]: 97.92%
CCCCCCCCCOC(=O)CCCN(CCO)CCCCCCCC(=O)OC(CCCCCCCC)CCCCCCCC [Compound 26, Heptadecan-9-yl 8-((2-hydroxyethyl)(4-(nonyloxy)-4-oxobutyl)amino) octanoate] | 3.90E+06 | 6.13E+07 | 6.75E+10 | 1.57E+10 | 1.54E+09 | 6.64 | 97.43 | 4.24 | – | – | – | 4.24 | 6.64 ± 0.14 | – | 97.4 ± 0.2 | 95.60 | Fold increase in Luc expression relative to MC3, Intramuscular (0.001 mpk dose) [1]: 0.56; Fold increase in Luc expression relative to MC3, Intramuscular (0.01 mpk dose) [1]: 1.39; fold increase in Luc expression over MC3 formulations ([2]; intravenous administration, in words): highest fold increase; Fold increase in Luc expression relative to MC3, Intravenous (0.5 mpk dose) [2]: 4.24; luciferase activity relative to MC3 LNP control ([2]; 0.5 mg/kg): higher expression compared to MC3; also recorded: highest luciferase activity of the series; pKa ([3]; Table 6): 6.64
CCCCCCCCCOC(=O)CCCCCCCN(CCO)CCCCCC(=O)OC(CCCCCCCC)CCCCCCCC [Compound 27, Nonyl 8-((6-(heptadecan-9-yloxy)-6-oxohexyl)(2-hydroxyethyl)amino) octanoate] | 2.55E+06 | 3.17E+07 | 1.64E+10 | 1.03E+10 | 1.94E+09 | 6.78 | 94.27 | 0.31 | – | – | – | – | – | – | – | – | –
CCCCCCCCC(CCCCCCCC)OC(=O)CCCCCCCN(CCO)CCCCCCCC(=O)OCC1CC1CCCCCC (stereo not shown) [Compound 28, Heptadecan-9-yl 8-((8-((2-hexylcyclopropyl)methoxy)-8-oxooctyl)(2-hydroxyethyl)amino)octanoate] | 6.73E+05 | 5.56E+06 | 8.98E+10 | 1.13E+11 | 1.20E+09 | 6.04 | 97.03 | 2.46 | – | – | – | – | – | – | – | – | total flux at 3 hours ([2]; 0.5 mg/kg): highest
CCCCCCCCC(CCCCCCCC)OC(=O)CCCCCCCN(CCO)CCCCCCCC(=O)OC(CCCCCCCC)CCCCCCCC [Compound 29, Di(heptadecan-9-yl) 8,8′-((2-hydroxyethyl)azanediyl)dioctanoate] | 7.64E+05 | 1.12E+07 | 4.61E+09 | 2.89E+09 | 3.55E+08 | 6.00 | 96.99 | 0.78 | – | – | – | – | 6.00 ± 0.24 | – | 97.0 ± 0.6 | – | Fold increase in Luc expression relative to MC3, Intramuscular (0.001 mpk dose) [1]: 0.11; Fold increase in Luc expression relative to MC3, Intramuscular (0.01 mpk dose) [1]: 0.25; Fold increase in Luc expression relative to MC3, Intravenous (0.5 mpk dose) [2]: 1.03; luciferase activity relative to MC3 LNP control [2]: lower luciferase activity; surface pKa ([3]; LNP, Example 26): 6.00; pKa ([3]; Table 6): 6.00
CCCCCCCCCOC(=O)CCCCCCCN(CCO)CCCCCCCOC(=O)C(CCCCCCCC)CCCCCCCC [Compound 30, 7-((2-Hydroxyethyl)(8-(nonyloxy)-8-oxooctyl)amino)heptyl 2-octyldecanoate] | 2.47E+06 | 3.77E+07 | 1.19E+10 | 2.09E+10 | 1.21E+09 | 6.75 | 95.69 | 2.49 | 2.49 | 2.49 | 93.0 | – | – | 93.1 | – | – | Novel lipid/MC3 expression ratio, 6 hr. time point, i.m. Luc [1]: 4.69; Apparent pKa ([3]; Table 3G): 6.75; EE (%) [4, 7]: 96.32%
CCCCCCCCC(C)OC(=O)CCCCCCCN(CCO)CCCCCCCC(=O)OC(CCCCCCCC)CCCCCCCC (stereo not shown) [Compound 48, decan-2-yl 8-((8-(heptadecan-9-yloxy)-8-oxooctyl)(2-hydroxyethyl)amino)octanoate] | 4.69E+05 | 8.78E+06 | 8.73E+10 | 1.10E+11 | 2.92E+09 | 6.68 | 96.55 | 10.0 | – | – | – | 10.0 | – | 96.2 | – | 91.92 | flux measured at 6 h relative to the MC3 formulation ([2]; i.v. administration, in words): ten times higher; total flux at 3 hours ([2]; 0.5 mg/kg): highest

Source: patent US12263248B2, “Compounds and compositions for intracellular delivery of therapeutic agents” (ModernaTX, Inc., priority 2018, dated 2025)
